Reference: ChEMBL document CHEMBL1201862, “PubChem BioAssay data set” (2004)
Active and inactive are the calls of the source.

Legend:
[1] = Luminescence Cell-Based Dose Retest to Confirm Inhibitors of Cancer Stem Cells. [Related pubchem assays (depositor defined):AID2717, AID2721]; format: functional; conditions: Homo sapiens
[2] = A Cell Based Secondary Assay To Explore Cytotoxicity of Compounds that Sensitize Mycobacterium Tuberculosis to Beta-Lactam Antibiotics.; format: functional
[3] = molecular target: T1, Scavenger receptor class B member 1 (Mus musculus, UniProt Q61009); experiment: inhibitors of SR-BI mediated HDL lipid uptake, dose response, ldlA[mSR-BI] cells, fluorescence, cherry pick (AID 493194); format: functional, cell-based;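 further: cellular uptake of fluorescent DiI-labeled HDL measured as cell fluorescence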
T1 sequence (Q61009 whole entry): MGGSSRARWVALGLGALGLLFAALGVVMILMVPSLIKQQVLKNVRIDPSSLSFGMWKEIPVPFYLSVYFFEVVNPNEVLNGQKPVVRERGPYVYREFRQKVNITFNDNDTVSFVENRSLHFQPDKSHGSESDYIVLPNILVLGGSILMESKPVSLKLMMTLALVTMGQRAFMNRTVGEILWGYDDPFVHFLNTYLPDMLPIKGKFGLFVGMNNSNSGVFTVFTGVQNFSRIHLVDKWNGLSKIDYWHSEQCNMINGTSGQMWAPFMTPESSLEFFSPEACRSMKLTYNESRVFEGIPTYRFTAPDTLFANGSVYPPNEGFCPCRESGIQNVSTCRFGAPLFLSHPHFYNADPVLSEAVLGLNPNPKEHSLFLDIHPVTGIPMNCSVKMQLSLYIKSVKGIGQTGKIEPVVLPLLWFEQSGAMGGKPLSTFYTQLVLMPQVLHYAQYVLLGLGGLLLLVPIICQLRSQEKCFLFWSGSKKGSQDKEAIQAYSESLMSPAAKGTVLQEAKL

[4] = molecular target: T2, Cytochrome P450 1A2 (Homo sapiens, UniProt P05177);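 further: PubChem cytochrome P450 panel assay, CYP1A2 panel member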
T2 sequence (P05177 whole entry): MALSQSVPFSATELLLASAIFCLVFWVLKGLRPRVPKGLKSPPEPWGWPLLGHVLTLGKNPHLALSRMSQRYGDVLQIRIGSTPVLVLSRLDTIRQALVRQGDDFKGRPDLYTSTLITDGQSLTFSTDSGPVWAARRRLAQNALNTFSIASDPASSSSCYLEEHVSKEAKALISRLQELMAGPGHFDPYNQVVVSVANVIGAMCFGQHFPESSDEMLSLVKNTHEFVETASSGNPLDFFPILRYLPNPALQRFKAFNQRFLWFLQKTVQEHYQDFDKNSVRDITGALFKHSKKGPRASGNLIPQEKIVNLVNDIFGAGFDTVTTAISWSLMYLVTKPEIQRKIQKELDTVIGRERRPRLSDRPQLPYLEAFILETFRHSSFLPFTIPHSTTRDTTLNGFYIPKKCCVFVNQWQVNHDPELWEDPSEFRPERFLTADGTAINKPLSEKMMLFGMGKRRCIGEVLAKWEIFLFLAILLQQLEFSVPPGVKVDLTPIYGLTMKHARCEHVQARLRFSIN

[5] = molecular target: Cytochrome P450 2C9 (Homo sapiens, UniProt P11712)
Sequence of Cytochrome P450 2C9 (P11712 whole entry): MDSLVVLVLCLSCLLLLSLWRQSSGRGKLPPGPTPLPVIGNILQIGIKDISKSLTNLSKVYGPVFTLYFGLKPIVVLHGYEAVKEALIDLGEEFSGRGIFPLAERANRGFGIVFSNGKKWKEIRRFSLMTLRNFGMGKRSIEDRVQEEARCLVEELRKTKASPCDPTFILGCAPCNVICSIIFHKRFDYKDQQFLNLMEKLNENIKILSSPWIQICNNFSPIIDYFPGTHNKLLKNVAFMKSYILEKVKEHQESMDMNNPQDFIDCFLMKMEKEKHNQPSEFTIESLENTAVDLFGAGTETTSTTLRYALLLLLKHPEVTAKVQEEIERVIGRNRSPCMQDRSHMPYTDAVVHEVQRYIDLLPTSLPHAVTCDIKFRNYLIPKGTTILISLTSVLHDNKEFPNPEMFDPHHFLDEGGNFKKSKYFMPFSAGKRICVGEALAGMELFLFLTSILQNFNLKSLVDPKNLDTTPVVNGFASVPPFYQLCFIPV

[6] = cells
[7] = cytotoxicity toward NIH3T3 fibroblasts, dose response, counter-screen, cell-based, ATP luminescence, mouse fibroblasts (AID 2010); format: functional;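 further: cells exposed to compound for about 90 hours before reading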
[8] = inhibitors of intracellular T. cruzi replication, confirmation, NIH3T3 host cells, beta-gal luminescence (AID 2044); format: functional, cell-based;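 further: intracellular parasites grown in NIH/3T3 mouse fibroblasts as host cells; luminescent beta-galactosidase reporter signal from transgenic T. cruzi replicating inside host cells; inhibitors lower the luminescence signal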
[9] = molecular target: T3, Aryl hydrocarbon receptor (Homo sapiens, UniProt P35869); experiment: Luminescence-based cell-based high throughput dose response assay for activators of the Aryl Hydrocarbon Receptor (AHR). [Related pubchem assays: 2796 (Primary screen (AHR activators in singlicate)), 2845 (Confirmation screen (AHR activators in triplicate)), 434939 (Counterscreen (PXR activators in triplicate)), 2804 (Summary (AHR activators))]; format: ADME
T3 sequence (P35869 whole entry): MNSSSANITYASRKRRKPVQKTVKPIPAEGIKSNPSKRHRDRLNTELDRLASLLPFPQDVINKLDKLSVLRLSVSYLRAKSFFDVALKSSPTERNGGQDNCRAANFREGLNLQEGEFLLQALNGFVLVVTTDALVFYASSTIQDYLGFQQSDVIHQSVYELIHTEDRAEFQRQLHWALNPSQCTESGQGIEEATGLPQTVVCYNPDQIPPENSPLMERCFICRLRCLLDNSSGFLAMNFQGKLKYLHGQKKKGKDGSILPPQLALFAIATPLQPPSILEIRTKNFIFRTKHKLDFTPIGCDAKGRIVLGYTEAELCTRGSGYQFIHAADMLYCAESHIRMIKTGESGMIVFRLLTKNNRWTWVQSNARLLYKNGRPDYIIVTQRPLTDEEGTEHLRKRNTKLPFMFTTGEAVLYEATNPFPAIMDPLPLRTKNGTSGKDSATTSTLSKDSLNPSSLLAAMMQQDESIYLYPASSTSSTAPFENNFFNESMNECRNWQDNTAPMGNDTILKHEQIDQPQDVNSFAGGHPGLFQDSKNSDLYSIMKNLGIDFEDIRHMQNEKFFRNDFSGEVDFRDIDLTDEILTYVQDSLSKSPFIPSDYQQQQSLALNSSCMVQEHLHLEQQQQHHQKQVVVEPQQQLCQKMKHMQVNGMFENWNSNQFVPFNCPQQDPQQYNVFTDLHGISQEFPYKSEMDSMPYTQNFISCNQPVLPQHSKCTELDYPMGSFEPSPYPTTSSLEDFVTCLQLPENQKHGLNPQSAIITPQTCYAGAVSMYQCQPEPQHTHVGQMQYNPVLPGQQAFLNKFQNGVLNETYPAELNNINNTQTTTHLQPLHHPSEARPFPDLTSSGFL

[10] = molecular target: T4, X-box-binding protein 1 (Homo sapiens, UniProt P17861); format: functional, Cricetulus griseus;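 further: confirmatory dose-response counter-screen serving a CHOP assay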
T4 sequence (P17861 whole entry): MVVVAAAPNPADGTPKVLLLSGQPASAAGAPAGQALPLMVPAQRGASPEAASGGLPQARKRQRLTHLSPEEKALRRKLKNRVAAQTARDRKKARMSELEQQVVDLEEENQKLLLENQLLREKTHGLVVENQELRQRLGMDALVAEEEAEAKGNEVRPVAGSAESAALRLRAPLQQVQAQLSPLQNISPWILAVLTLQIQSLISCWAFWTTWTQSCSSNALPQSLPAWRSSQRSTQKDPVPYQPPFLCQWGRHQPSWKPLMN

[11] = molecular target: T5, Heat shock factor protein 1 (Mus musculus, UniProt P38532); experiment: inhibition of MG132-induced HSE-luciferase signal, confirmation, cell-based, NIH3T3, luminescence, dose retest (AID 2382); format: functional;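 further: NIH3T3 fibroblasts with HSF1-driven luciferase reporter stressed by proteasome inhibitor MG132; luminescence from HSF1-driven luciferase expression after 8 hours of MG132 stress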
T5 sequence (P38532 whole entry): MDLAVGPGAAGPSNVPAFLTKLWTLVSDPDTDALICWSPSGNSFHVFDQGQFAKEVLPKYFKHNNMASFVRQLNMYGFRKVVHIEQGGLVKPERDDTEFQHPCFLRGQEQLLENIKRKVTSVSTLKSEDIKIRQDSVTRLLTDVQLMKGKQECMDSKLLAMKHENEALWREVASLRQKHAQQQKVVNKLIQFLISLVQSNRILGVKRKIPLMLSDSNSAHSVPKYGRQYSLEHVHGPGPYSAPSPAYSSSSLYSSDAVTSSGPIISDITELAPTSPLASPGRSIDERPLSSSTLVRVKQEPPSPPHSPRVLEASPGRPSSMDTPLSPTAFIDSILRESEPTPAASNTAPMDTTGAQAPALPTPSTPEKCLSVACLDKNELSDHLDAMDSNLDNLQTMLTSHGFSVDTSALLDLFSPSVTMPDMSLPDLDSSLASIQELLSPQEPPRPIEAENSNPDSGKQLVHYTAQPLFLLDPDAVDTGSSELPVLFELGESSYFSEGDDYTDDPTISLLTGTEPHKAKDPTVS

[12] = test system: INS1; experiment: beta cell apoptosis inhibitors, cytokine rescue, dose response, luminescence, retest (AID 449756); format: functional, cell-based; conditions: Rattus norvegicus;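 further: cell death triggered by IL-1 beta plus TNF-alpha plus IFN-gamma mixture; protective hits raise ATP signal compared with cytokine alone wells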
[13] = molecular target: T6, Bcl-2-like protein 10 (Homo sapiens, UniProt Q9HD36); experiment: displacers of TR3 peptide from Bcl-B, primary screen, selectivity assay for Bfl-1 inhibitor project, biochemical, fluorescence polarization, FITC-TR3 peptide (AID 748);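 further: fluorescence polarization from a fluorescein-labelled TR3 peptide binding purified Bcl-B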
T6 sequence (Q9HD36 whole entry): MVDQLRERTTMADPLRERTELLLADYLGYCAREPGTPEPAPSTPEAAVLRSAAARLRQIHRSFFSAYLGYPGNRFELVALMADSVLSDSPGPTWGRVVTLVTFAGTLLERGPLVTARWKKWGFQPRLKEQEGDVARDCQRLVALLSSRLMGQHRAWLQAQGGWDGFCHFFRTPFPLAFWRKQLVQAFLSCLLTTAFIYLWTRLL

[14] = molecular target: T7, Corticotropin-releasing factor receptor 2/Corticotropin-releasing factor-binding protein (Homo sapiens, UniProt P24387+Q13324); experiment: activators of CRF receptor 2 with binding protein – uHTS hits, confirmation (AID 602473); format: functional; conditions: read-out: EC50_Mean
T7 sequence (Q13324 whole entry): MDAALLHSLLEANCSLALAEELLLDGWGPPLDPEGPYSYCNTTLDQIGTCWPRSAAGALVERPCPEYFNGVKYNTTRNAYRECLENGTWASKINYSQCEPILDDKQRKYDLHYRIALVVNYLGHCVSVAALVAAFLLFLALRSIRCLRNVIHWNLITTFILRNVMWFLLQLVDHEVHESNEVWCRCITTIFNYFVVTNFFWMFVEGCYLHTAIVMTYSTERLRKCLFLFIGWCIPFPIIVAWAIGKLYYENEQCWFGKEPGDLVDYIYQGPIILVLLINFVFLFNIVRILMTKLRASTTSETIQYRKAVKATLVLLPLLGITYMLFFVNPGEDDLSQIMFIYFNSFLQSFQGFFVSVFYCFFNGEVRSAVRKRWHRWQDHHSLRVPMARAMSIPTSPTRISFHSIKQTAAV
T7 sequence (P24387 whole entry): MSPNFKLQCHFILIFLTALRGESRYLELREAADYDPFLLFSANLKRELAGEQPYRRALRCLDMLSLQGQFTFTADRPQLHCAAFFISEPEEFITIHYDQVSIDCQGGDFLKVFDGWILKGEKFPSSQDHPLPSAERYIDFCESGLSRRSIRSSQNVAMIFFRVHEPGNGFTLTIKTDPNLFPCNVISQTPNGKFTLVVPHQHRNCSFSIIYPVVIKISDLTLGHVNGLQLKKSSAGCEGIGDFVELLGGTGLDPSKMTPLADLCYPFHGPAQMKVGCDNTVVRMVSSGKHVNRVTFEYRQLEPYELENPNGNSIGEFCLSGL

C=CCNCCCOc1ccc(Cl)cc1C(C)(C)C
AC50 [1]: 16.1 µM (active) | CC50 [2]: 28.8 µM (active)

COc1ccc2sc(-c3ccc(N(C)C)cc3)c(C#CC(C)(C)O)c2c1
AC50 [3]: 2.73 µM (active)

CC(=O)Nc1ccc(Nc2ncc([N+](=O)[O-])c(Nc3ccc(NC(C)=O)cc3)n2)cc1
CC50 [2]: > 40 µM (active) | AC50 [4]: 22.4 µM (inconclusive) | AC50 [5]: 0.355 µM (inconclusive)

CN1CCC(OC(=O)c2ccc(Br)cc2)CC1
EC50 [6]: 0.029 µM (active) | EC50 [7]: > 60 µM (not active) | EC50 [8]: < 0.1 µM (active)

O=C(CN(C(=O)Cn1nnc(-c2ccc(F)cc2)n1)C1CCCC1)NC1CCCC1
AC50 [3]: 0.184 µM (active)

CCCNc1nc(Cl)nc(Nc2ccc(Cl)cc2)n1
EC50 [9]: 3.38 µM (active)

COc1cc(/C=C/c2nc(N)nc(-c3ccccc3O)n2)cc(OC)c1OC
Absolute IC50 (XBP1) [10]: 10 µM | EC50 [11]: 36.1 µM (active)

Fc1ccccc1N1CCN(C2CCCN(Cc3cccc(C(F)(F)F)c3)C2)CC1 (centres undefined)
EC50 [6]: 0.656 µM (active) | EC50 [7]: > 60 µM (not active) | EC50 [8]: < 0.1 µM (active)

Nc1ccc(Nc2nc(-c3cccs3)cs2)cc1
AC50 [3]: 8.4 µM (active)

COc1cc(/C=N/NC(=O)c2cccnc2)cc2c1OCO2
EC50 [9]: 6.16 µM (active)

COc1ccc2c(c1)N(C)/C(=C/c1cccc[n+]1C)S2
EC50 [6]: 0.029 µM (active) | AC50 [12]: 1.13 µM (active) | EC50 [7]: > 60 µM (not active) | EC50 [8]: < 0.1 µM (active)

Brc1ccc2ncnc(Nc3ccc(N4CCOCC4)cc3)c2c1
IC50 [13]: > 50 µM (inactive) | EC50 [9]: 1.14 µM (active) | EC50 [7]: > 60 µM (not active) | EC50 [8]: 0.92 µM (active)

CCOc1ccc(C2=C/C(=C/c3cccnc3)C(=O)O2)cc1
Absolute IC50 (XBP1) [10]: 10 µM

COc1cc(/C=C(/C#N)c2nc(O)c3ccccc3n2)ccc1O
EC50 [14]: > 53 µM (inactive) | Absolute IC50 (XBP1) [10]: 10 µM
